Counter-ions that a name gives are not always drawn. Like-named read-outs stand apart in the source and are kept apart here.
Columns and labels:
[1] = biological target: PI3Kδ (p110δ/p85α) Recombinant Human Protein (Homo sapiens (Human), UniProt O00329); experiment: PI3Kδ Scintillation Proximity Assay; type: biochemical
Summary of the method: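 IC50 was fitted to percent solvent-control activity from SPA scintillation counts after WGA bead capture of 33P-labelled lipid product. Reaction: 120 min, room temperature, 3.4 nM p110δ/p85α, 20 μM PIP2, 2 μM ATP with tracer, MOPS pH 6.7 buffer containing MgCl2, DTT, CHAPS, 2% DMSO.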

[2] = system: Phosphorylated Ribosomal Protein S6 (RPS6); experiment: THP-1 RPS6 ELISA Assay; type: cell-based, Human; details: THP-1 cells, read-out: PI3Kγ_THP1_RPS6_ELISA IC50
Description: To measure the Phosphorylated Ribosomal Protein S6 (RPS6) in cell lysates, THP-1 cells (Human Acute Monocytic Leukemia) are purchased from ATCC (Manassas, Va.) and maintained in RPMI with 10% FBS (Gibco/Life Technologies, Carlsbad, Calif.). For the assay, THP-1 cells are serum starved overnight in RPMI, then plated in RPMI (2×10^5 cells/well in 90 μL) into 96-well flat-bottom tissue culture treated plates (Corning, Corning, N.Y.), in the presence or absence of a concentration range of test compounds. Covered plates are incubated for 2 hours at 37° C., 5% CO2 then treated with or without 10 nM MCP-1 (MYBioSource, San Diego, Calif.) for 15 minutes at 37° C., 5% CO2. Plates are centrifuged at 1600 RPM and supernatants are removed. Cells are lysed in Lysis Buffer (Cell Signaling, Danvers, Mass.) with Protease Inhibitor (Calbiochem/EMD, Germany), PMSF (Sigma, St Louis Mo.), HALTS (Thermo Fisher, Rockford, Ill.) for 30 min on wet ice. Cell lysates are frozen at −80° C. before testing. The lysates are tested in the Human/Mouse/Rat Phospho-RPS6 ELISA (R&D Systems, Inc. Minn, Minn.). The plate is measured using a microplate reader (SpectraMax M5 —Molecular Devices, LLC Sunnyvale, Calif.) set to 450 nm with a wavelength correction of 540. IC50 determination is performed by fitting the curve of inhibitor percent inhibition versus the log of the inhibitor concentration using the GraphPad Prism 5.0 software.

[3] = biological target: PI3Kγ (p110γ) Recombinant Human Protein (Homo sapiens (Human), UniProt P48736); experiment: PI3K-γ Scintillation Proximity Assay; type: biochemical; details: read-out: PI3Kγ IC50
Chain of PI3Kγ (p110γ) Recombinant Human Protein (P48736 whole entry): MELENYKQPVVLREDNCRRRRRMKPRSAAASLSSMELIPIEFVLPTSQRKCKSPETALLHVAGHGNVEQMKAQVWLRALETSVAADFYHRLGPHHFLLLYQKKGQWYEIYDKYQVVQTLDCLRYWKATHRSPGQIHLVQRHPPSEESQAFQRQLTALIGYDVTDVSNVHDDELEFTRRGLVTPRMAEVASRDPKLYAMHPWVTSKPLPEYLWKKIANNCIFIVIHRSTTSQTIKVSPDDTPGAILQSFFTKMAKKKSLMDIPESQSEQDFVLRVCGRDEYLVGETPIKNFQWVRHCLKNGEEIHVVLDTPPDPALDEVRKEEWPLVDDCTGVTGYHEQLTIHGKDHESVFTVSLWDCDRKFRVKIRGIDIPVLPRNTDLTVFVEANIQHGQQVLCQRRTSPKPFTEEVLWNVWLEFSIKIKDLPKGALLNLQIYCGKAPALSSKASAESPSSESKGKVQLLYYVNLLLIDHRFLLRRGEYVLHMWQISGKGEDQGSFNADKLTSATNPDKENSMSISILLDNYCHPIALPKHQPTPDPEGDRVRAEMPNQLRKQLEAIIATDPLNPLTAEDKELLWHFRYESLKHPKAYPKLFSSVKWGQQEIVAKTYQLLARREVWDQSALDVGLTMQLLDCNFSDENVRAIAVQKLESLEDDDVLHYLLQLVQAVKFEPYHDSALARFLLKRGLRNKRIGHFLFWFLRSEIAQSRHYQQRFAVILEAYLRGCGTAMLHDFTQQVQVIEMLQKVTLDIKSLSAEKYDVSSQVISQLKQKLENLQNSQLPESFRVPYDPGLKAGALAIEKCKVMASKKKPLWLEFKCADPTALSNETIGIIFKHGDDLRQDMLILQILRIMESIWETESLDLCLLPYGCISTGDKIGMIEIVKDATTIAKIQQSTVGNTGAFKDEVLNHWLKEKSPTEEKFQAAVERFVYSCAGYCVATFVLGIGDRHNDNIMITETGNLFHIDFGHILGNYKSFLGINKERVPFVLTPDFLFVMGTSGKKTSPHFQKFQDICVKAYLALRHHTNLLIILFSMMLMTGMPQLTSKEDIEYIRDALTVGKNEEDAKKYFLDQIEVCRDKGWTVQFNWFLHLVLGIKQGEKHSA
Summary of the method: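 Radiometric SPA readout: […] bound to WGA beads after overnight shaking, IC50 derived from % activity of DMSO control. Reaction used human p110γ, 2 μM ATP, 20 μM PIP2, pH 6.7 MOPS buffer with MgCl2, DTT, CHAPS, 2% DMSO, room temperature.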

Chain of PI3Kδ (p110δ/p85α) Recombinant Human Protein (O00329 whole entry): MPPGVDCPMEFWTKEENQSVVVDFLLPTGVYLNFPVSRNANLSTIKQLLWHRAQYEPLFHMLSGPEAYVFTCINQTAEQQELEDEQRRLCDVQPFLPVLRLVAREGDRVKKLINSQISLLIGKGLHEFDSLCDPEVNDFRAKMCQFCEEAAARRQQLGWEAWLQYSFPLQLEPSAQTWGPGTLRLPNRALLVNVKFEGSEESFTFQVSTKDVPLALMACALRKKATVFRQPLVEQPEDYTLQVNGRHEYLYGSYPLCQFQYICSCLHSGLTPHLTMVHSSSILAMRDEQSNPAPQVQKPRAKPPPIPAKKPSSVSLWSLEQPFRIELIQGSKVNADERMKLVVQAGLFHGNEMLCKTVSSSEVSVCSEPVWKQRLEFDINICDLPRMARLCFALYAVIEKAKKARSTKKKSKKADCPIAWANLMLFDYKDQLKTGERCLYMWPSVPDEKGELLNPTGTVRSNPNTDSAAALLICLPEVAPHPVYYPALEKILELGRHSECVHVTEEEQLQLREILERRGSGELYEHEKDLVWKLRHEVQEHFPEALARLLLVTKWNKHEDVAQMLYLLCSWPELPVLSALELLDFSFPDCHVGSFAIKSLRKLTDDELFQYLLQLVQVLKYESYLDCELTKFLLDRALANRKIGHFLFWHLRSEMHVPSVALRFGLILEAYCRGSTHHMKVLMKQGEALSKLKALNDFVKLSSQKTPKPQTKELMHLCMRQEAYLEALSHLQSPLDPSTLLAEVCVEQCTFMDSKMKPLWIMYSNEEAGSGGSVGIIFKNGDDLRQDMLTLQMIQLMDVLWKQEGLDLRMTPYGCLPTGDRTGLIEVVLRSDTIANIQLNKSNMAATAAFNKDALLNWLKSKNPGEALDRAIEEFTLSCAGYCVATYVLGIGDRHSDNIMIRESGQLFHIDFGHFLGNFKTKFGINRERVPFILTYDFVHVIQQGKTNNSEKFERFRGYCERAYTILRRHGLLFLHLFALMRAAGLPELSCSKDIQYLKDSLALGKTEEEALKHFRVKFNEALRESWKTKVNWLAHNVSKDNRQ
Chain of PI3Kδ (p110δ/p85α) Recombinant Human Protein (P27986 whole entry partner): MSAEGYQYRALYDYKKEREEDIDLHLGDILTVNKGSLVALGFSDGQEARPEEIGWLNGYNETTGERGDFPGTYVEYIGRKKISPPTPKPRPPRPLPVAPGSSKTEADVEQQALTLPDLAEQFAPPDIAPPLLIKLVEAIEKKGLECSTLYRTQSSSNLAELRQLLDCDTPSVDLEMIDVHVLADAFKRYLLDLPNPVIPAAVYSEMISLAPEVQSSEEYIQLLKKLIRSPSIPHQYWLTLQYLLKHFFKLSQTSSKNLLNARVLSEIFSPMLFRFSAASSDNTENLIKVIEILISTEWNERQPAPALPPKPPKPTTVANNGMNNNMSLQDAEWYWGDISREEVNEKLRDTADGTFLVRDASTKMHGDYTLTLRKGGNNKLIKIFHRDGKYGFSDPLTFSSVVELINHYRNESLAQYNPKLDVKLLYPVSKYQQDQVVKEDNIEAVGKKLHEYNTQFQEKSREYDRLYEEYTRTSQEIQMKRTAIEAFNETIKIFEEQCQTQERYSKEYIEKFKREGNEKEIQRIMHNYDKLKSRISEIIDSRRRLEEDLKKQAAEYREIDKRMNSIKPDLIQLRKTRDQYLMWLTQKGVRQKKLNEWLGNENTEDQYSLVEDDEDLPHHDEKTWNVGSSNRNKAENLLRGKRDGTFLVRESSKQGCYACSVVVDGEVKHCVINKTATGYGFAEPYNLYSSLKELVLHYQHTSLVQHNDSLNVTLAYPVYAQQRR

Molecule	IC50 [1] [nM]	IC50 [2] [nM]	IC50 [3] [nM]	IC50 ([2]; Homo sapiens) [nM]
Cc1ccc(S(=O)(=O)NC23CC(Cn4ccnc4)(C2)C3)cc1-c1cnc2c(N)ncnn12 [Example 112, N-(3-((1H-Imidazol-1-yl)methyl)bicyclo[1.1.1]pentan-1-yl)-3-(4-aminoimidazo[1,2-f][1,2,4]triazin-7-yl)-4-methylbenzenesulfonamide trifluoroacetate salt]	100 to 500	100 to 500	< 100	–
CC(=O)Nc1cc(Cl)cn2c(-c3cc(S(=O)(=O)N[C@H]4CC[C@H](O)CC4)ccc3C)cnc12 [Example 5, N-[6-chloro-3-(5-{[(trans-4-hydroxycyclohexyl)amino]sulfonyl}-2-methylphenyl)imidazo[1,2-a]pyridin-8-yl]acetamide]	100 to 500	–	< 100	100 to 500
5-(4-Amino-2-(trifluoromethyl)imidazo[1,2- f][1,2,4]triazin-7-yl)-2-chloro-N-(4- (hydroxymethyl)bicyclo[1.1.1]hexan-1- yl)benzenesulfonamide [Example 419]	–	> 1000	< 100	–
N#Cc1ccc(S(=O)(=O)NC23CCC(CO)(C2)C3)cc1-c1cnc2c(N)nc(C(F)(F)F)cn12 [Example 401, 3-(8-Amino-6-(trifluoromethyl)imidazo[1,2-a]pyrazin-3-yl)-4-cyano-N-(4-(hydroxymethyl)bicyclo[2.1.1]hexan-1-yl)benzenesulfonamide trifluoroacetate salt]	> 2000	–	< 100	–
Cc1ccc(S(=O)(=O)N(C)C2CC2)cc1-c1cnc2c(N)ncnn12 [Example 148, 3-(4-aminoimidazo[2,1-f][1,2,4]triazin-7-yl)-N-cyclopropyl-N,4-dimethylbenzenesulfonamide]	500 to 2000	–	100 to 500	–
Cc1ccc(-c2cnc3c(N)ncnn23)cc1S(=O)(=O)NC12CCC(C#N)(C1)C2 [Example 369, 5-(4-Aminoimidazo[1,2-f][1,2,4]triazin-7-yl)-N-(4-cyanobicyclo[2.1.1]hexan-1-yl)-2-methylbenzenesulfonamide trifluoroacetate salt]	100 to 500	–	< 100	–
Cc1ccc(S(=O)(=O)N2CCCCC23CC3)cc1-c1cnc2c(N)ncnn12 [Example 149, 7-(5-((4-azaspiro[2.5]octan-4-yl)sulfonyl)-2-methylphenyl)imidazo[2,1-f][1,2,4]triazin-4-amine]	100 to 500	–	< 100	–
Cc1ccc(S(=O)(=O)N2CCCC(NC(=O)OC(C)(C)C)C2)cc1-c1cnc2c(N)nc(C(F)(F)F)cn12 (centres unmarked) [Example 515, tert-Butyl (1-((3-(8-amino-6-(trifluoromethyl)imidazo[1,2-a]pyrazin-3-yl)-4-methylphenyl)sulfonyl)piperidin-3-yl)carbamate]	> 2000	–	100 to 500	–
Cc1ccc(S(=O)(=O)N2CC(C)OCC2(C)C)cc1-c1cnc2c(N)ncnn12 (centres unmarked) [Example 158, 7-(2-methyl-5-((2,5,5-trimethylmorpholino)sulfonyl)phenyl)imidazo[2,1-f][1,2,4]triazin-4-amine]	500 to 2000	–	< 100	–

Second part, the molecule after the results:

IC50 [1] [nM]	IC50 [2] [nM]	IC50 [3] [nM]	IC50 ([2]; Homo sapiens) [nM]	Molecule
500 to 2000	> 1000	< 100	–	Cc1ccc(S(=O)(=O)N[C@H]2CC[C@@](C)(O)CC2)cc1-c1cnc2c(N)ncnn12 [Example 133, 3-(4-aminoimidazo[2,1-f][1,2,4]triazin-7-yl)-N-((1S,4S)-4-hydroxy-4-methylcyclohexyl)-4-methylbenzenesulfonamide]
100 to 500	–	< 100	100 to 500	Cc1ccc(S(=O)(=O)NC23CC(F)(C2)C3)cc1-c1cnc2c(N)nc(C(F)(F)F)cn12 [Example 285, 3-(8-Amino-6-(trifluoromethyl)imidazo[1,2-a]pyrazin-3-yl)-N-(3-fluorobicyclo[1.1.1]pentan-1-yl)-4-methylbenzenesulfonamide trifluoroacetate salt]
100 to 500	–	< 100	100 to 500	Cc1ccc(S(=O)(=O)NC23CCC(CO)(CC2)OC3)cc1-c1cnc2c(N)ncnn12 [Example 433, 3-(4-Aminoimidazo[1,2-f][1,2,4]triazin-7-yl)-N-(1-(hydroxymethyl)-2-oxabicyclo[2.2.2]octan-4-yl)-4-methylbenzenesulfonamide trifluoroacetate salt]
500 to 2000	–	< 100	–	Cc1ccc(S(=O)(=O)N[C@]2(C)C[C@H](O)C2)cc1-c1cnc2c(N)ncnn12 [Example 191, 3-(4-aminoimidazo[2,1-f][1,2,4]triazin-7-yl)-N-((1s,3s)-3-hydroxy-1-methylcyclobutyl)-4-methylbenzenesulfonamide]
500 to 2000	–	< 100	–	CCN(CC1CCCO1)S(=O)(=O)c1ccc(C)c(-c2cnc3c(N)ncnn23)c1 (centres unmarked) [Example 179, 3-(4-aminoimidazo[2,1-f][1,2,4]triazin-7-yl)-N-ethyl-4-methyl-N-((tetrahydrofuran-2-yl)methyl)benzenesulfonamide]
> 2000	–	500 to 2000	–	CCS(=O)(=O)Nc1cc(-c2cnc3c(N)cc(Cl)cn23)c[nH]c1=O [Example 6, N-[5-(8-Amino-6-chloroimidazo[1,2-a]pyridin-3-yl)-2-oxo-1,2-dihydropyridin-3-yl]ethanesulfonamide trifluoroacetate]
500 to 2000	–	< 100	–	Cc1ccc(S(=O)(=O)N2CCS(=O)(=O)CC2C)cc1-c1cnc2c(N)ncnn12 (centres unmarked) [Example 162, 4-((3-(4-aminoimidazo[2,1-f][1,2,4]triazin-7-yl)-4-methylphenyl)sulfonyl)-3-methylthiomorpholine 1,1-dioxide]
100 to 500	–	< 100	–	Cc1ccc(S(C)(=O)=O)cc1-c1cnc2c(N)nc(-c3ccnn3C)cn12 [Example 479, 6-(1-Methyl-1H-pyrazol-5-yl)-3-(2-methyl-5-(methylsulfonyl)phenyl)imidazo[1,2-a]pyrazin-8-amine trifluoroacetate]
500 to 2000	–	< 100	–	Cc1ccc(S(=O)(=O)N2CCC(F)(F)C(O)C2)cc1-c1cnc2c(N)ncnn12 (centres unmarked) [Example 196, 1-((3-(4-Aminoimidazo[2,1-f][1,2,4]triazin-7-yl)-4-methylphenyl)sulfonyl)-4,4-difluoropiperidin-3-ol]
500 to 2000	–	100 to 500	–	Cc1ccc(S(=O)(=O)N2CC3C(O)C2CN3C(C)C)cc1-c1cnc2c(N)nc(C(F)(F)F)nn12 (centres unmarked) [Example 350, 2-((3-(4-amino-2-(trifluoromethyl)imidazo[2,1-f][1,2,4]triazin-7-yl)-4-methylphenyl)sulfonyl)-5-isopropyl-2,5-diazabicyclo[2.2.1]heptan-7-ol]
500 to 2000	–	< 100	–	Cc1ccc(S(=O)(=O)NC23CC(CO)(C2)C3)cc1-c1cnc2c(N)ncnn12 [Example 105, 3-(4-Aminoimidazo[1,2-f][1,2,4]triazin-7-yl)-N-(3-(hydroxymethyl)bicyclo[1,1,1]pentan-1-yl)-4-methylbenzenesulfonamide trifluoroacetate salt]
> 2000	–	100 to 500	–	Cc1ccc(S(=O)(=O)N(CCC#N)C2CCCCC2)cc1-c1cnc2c(N)ncnn12 [Example 173, 3-(4-aminoimidazo[2,1-f][1,2,4]triazin-7-yl)-N-(2-cyanoethyl)-N-cyclohexyl-4-methylbenzenesulfonamide]

From patent US10479795B2 (Incyte Corporation, priority 2016, dated 2019)
